These results are taken from article PMC8303886, “Polyphenylglyoxamide-Based Amphiphilic Small Molecular Peptidomimetics as Antibacterial Agents with Anti-Biofilm Activity” (International Journal of Molecular Sciences, 2021).

Experiment [1] relates to S. aureus (SA38). The experiment can be described thus: Minimum inhibitory concentration (MIC) assay against S. aureus. Format: cell-based, Staphylococcus aureus. The following applies: S. aureus SA38, read-out: MIC S. aureus.
Experiment [2] relates to S. aureus (SA38). The note with it: previously reported, cited from earlier work.
Experiment [3] deals with MRC-5 normal human lung fibroblasts. The experiment can be described thus: MTT cytotoxicity assay. Format: cell-based. The following applies: 72 h drug incubation; for pIC50 / IC50: read-out: IC50 against MRC-5 normal human lung fibroblasts; for IC50: Homo sapiens, MRC5, 72 h. On the procedure:
The IC50 values of the tested peptidomimetics were determined from a dose-response curve. […] The therapeutic indices for each tested peptidomimetic against Gram-positive S. aureus and Gram-negative E. coli were calculated by dividing the IC50 value against human cells by the corresponding MIC value (Table 2).
The toxicity of the peptidomimetics against normal human lung fibroblasts MRC-5 cells was measured, using an MTT (3-(4,5-dimethylthiazol-2-yl)-2,5-diphenyltetrazolium bromide) (Sigma Aldrich, St. Louis, MO, USA) colorimetric assay. The cells were cultured in minimal essential medium (MEM, Invitrogen) containing 10% foetal bovine serum (FBS). The cells were maintained at 37 °C in 5% CO2 as an adherent monolayer and was passaged upon reaching confluence by standard cell culture techniques. MRC-5 cells were seeded at 5000 cells/well in 96-well plates to ensure full confluence (quiescence) and left overnight to adhere to the plate wells. The adherent cells were treated with 1–500 μM of compounds by dissolving in DMSO and serially diluting with media. TY-01 was used as the positive control. The final concentration of DMSO was 0.5% (v/v). After the 72 h drug incubation, […] stock MTT solution (5 mg/mL) was added, and the cells were incubated for another 3.5–4 h. The MTT solution containing media was carefully aspirated without displacing the purple crystals from the bottom, and […] acid-isopropanol was added to all wells and mixed slowly by shaking with an orbital shaker to dissolve the dark blue crystals. […] The determination of IC50 values was performed using GraphPad Prism 7 (GraphPad, San Diego, CA, USA). Each experiment was performed in triplicate and was repeated in three independent experiments.

pIC50: −log10 of the molar value. In brackets after ≈: the same amount, converted by molar mass. Several values for one entry are separate records, joined by “and”; a condition that tells them apart may be missing. Identical values can stand only once. Like-named read-outs stand apart in the source and are kept apart here.

For the compound `CCCCCCCCCCCCCCCCS(=O)(=O)Nc1ccc(Br)cc1C(=O)C(=O)NCCCN(C)C` [Compound 12b, 2-(5-Bromo-2-(hexadecylsulfonamido)phenyl)-N-(3-(dimethylamino)propyl)-2-oxoacetamide], the MIC in experiment [1] (Staphylococcus aureus) was 250 µM and 154 µg/mL. Take `CCCCCCCCCCCCS(=O)(=O)Nc1ccc(-c2ccc(-c3ccccc3)cc2)cc1C(=O)C(=O)NCCCN(C)C.Cl` [Compound 14d, 3-(2-(4-(Dodecylsulfonamido)-[1,1′:4′,1″-terphenyl]-3-yl)-2-oxoacetamido)-N,N-dimethylpropan-1-aminium chloride]: the minimal inhibitory concentration (MIC) in experiment [1] is 125 µM; in experiment [1] (Staphylococcus aureus) it was 84 µg/mL. As for `CCCCCCCCS(=O)(=O)Nc1ccc(-c2cccc(-c3ccccc3)c2)cc1C(=O)C(=O)NCCCN(C)C` [Compound 21, N-(3-(Dimethylamino)propyl)-2-(4-(octylsulfonamido)-[1,1′:3′,1″-terphenyl]-3-yl)-2-oxoacetamide], in experiment [1] (Staphylococcus aureus), the MIC is 16 µM and 9.2 µg/mL. On the same count and under the same terms, for `CCCCCCCCCCCCS(=O)(=O)Nc1ccc(-c2ccccc2)cc1C(=O)C(=O)NCCCN(C)C` [Compound 11c, N-(3-(Dimethylamino)propyl)-2-(4-(dodecylsulfonamido)-[1,1′-biphenyl]-3-yl)-2-oxoacetamide] the value was 16 µM and 8.9 µg/mL; for `CCCCCCCCCCCCCCCCS(=O)(=O)Nc1ccccc1C(=O)C(=O)NCCCN(C)C` [Compound 12a, N-(3-(Dimethylamino)propyl)-2-(2-(hexadecylsulfonamido)phenyl)-2-oxoacetamide], 63 µM and 34 µg/mL. With `CCCCCCCCS(=O)(=O)Nc1ccc(-c2ccccc2)cc1C(=O)C(=O)NCCCN(C)C` [Compound 13c], the “MIC S. aureus” value in experiment [2] was 16 μM and 8.6 μg/mL. Consider `CCCCCCCCCCCCS(=O)(=O)Nc1ccccc1C(=O)C(=O)NCCCN(C)C.Cl` [Compound 14a, 3-(2-(2-(Dodecylsulfonamido)phenyl)-2-oxoacetamido)-N,N-dimethylpropan-1-aminium chloride], for which, in experiment [1] (Staphylococcus aureus), the MIC is 16 µM and 8.3 µg/mL. For `CCCCCCCCS(=O)(=O)Nc1ccc(-c2ccc(-c3ccccc3)cc2)cc1C(=O)C(=O)NCCCN(C)C.Cl` [Compound 13d, N,N-Dimethyl-3-(2-(4-(octylsulfonamido)-[1,1′:4′,1″-terphenyl]-3-yl)-2-oxoacetamido)propan-1-aminium chloride], the minimum inhibitory concentration (MIC) in experiment [1] (Staphylococcus aureus) is 16 µM and 9.8 µg/mL. Further, in experiment [3], the “IC50 against MRC-5 normal human lung fibroblasts” value was found to be 2.31 µg/mL; the negative logarithm of the IC50 (pIC50) is 5.42; the IC50 was ~4 µM and ~2 µg/mL. Regarding `CCCCCCCCCCCCCCCCS(=O)(=O)Nc1ccc(Br)cc1C(=O)C(=O)NCCC[N+](C)(C)C.[I-]` [Compound 18b, 3-(2-(5-Bromo-2-(hexadecylsulfonamido)phenyl)-2-oxoacetamido)-N,N,N-trimethylpropan-1-aminium iodide], the MIC in experiment [1] (Staphylococcus aureus) was 125 µM and 95 µg/mL. `CCCCCCCCCCCCS(=O)(=O)Nc1ccc(-c2ccc(-c3ccccc3)cc2)cc1C(=O)C(=O)NCCC[N+](C)(C)C.[I-]` [Compound 17d, 3-(2-(4-(Dodecylsulfonamido)-[1,1′:4′,1″-terphenyl]-3-yl)-2-oxoacetamido)-N,N,N-trimethylpropan-1-aminium iodide]: in experiment [1] (Staphylococcus aureus), the minimal inhibitory concentration (MIC) is 63 µM and 48 µg/mL.

Turning to `CCCCCCCCS(=O)(=O)Nc1ccc(Br)cc1C(=O)C(=O)NCCCNC(=N)N` [Compound 33b], the “MIC S. aureus” value was 12 μM and 6.7 μg/mL in experiment [2] (listed as 1, 33b); 12 µM (≈ 6.22 µg/mL) in experiment [2] (listed as 1). With `CCCCCCCCCCCCS(=O)(=O)Nc1ccc(-c2ccccc2)cc1C(=O)C(=O)NCCCN(C)C.Cl` [Compound 14c, 3-(2-(4-(Dodecylsulfonamido)-[1,1′-biphenyl]-3-yl)-2-oxoacetamido)-N,N-dimethylpropan-1-aminium chloride], the results for the MIC in experiment [1] and in experiment [1] (Staphylococcus aureus) were 16 µM and 9.5 µg/mL, respectively. In the case of `CCCCCCCCCCCCS(=O)(=O)Nc1ccccc1C(=O)C(=O)NCCC[N+](C)(C)C.[I-]` [Compound 17a, 3-(2-(2-(Dodecylsulfonamido)phenyl)-2-oxoacetamido)-N,N,N-trimethylpropan-1-aminium iodide], in experiment [1] (Staphylococcus aureus), the MIC is 16 µM and 10 µg/mL. `CCCCCCCCS(=O)(=O)Nc1ccc(-c2cccc(-c3ccccc3)c2)cc1C(=O)C(=O)NCCC[N+](C)(C)C.[I-]` [Compound 23, N,N,N-Trimethyl-3-(2-(4-(octylsulfonamido)-[1,1′:3′,1″-terphenyl]-3-yl)-2-oxoacetamido)propan-1-aminium iodide]: the minimal inhibitory concentration (MIC) in experiment [1] (Staphylococcus aureus) was 8 µM and 5.8 µg/mL. For the same compound, the concentration for half-maximal inhibition (IC50) in experiment [3] is 15.4 µM and 11.1 µg/mL.

For the compound `CCCCCCCCCCCCCCCCS(=O)(=O)Nc1ccc(Br)cc1C(=O)C(=O)NCCCN(C)C.Cl` [Compound 15b, 3-(2-(5-Bromo-2-(hexadecylsulfonamido)phenyl)-2-oxoacetamido)-N,N-dimethylpropan-1-aminium chloride], the MIC in experiment [1] came out at 250 µM; in experiment [1] (Staphylococcus aureus), 163 µg/mL.

Turning to `CCCCCCCCCCCCCCCCS(=O)(=O)Nc1ccccc1C(=O)C(=O)NCCCNC(=N)N.Cl` [Compound 35a, N-(3-Guanidinopropyl)-2-(2-(hexadecylsulfonamido)phenyl)-2-oxoacetamide hydrochloride], the minimum inhibitory concentration (MIC) in experiment [1] (Staphylococcus aureus) is 250 µM and 147 µg/mL. Turning to `CCCCCCCCS(=O)(=O)Nc1ccccc1C(=O)C(=O)NCCCN(C)C` [Compound 13a], the “MIC S. aureus” value in experiment [2] was > 250 μM and > 116 μg/mL. For `CCCCCCCCCCCCS(=O)(=O)Nc1ccccc1C(=O)C(=O)NCCCN(C)C` [Compound 11a, N-(3-(Dimethylamino)propyl)-2-(2-(dodecylsulfonamido)phenyl)-2-oxoacetamide], the minimal inhibitory concentration (MIC) amounted to 32 µM in experiment [1] and 15 µg/mL in experiment [1] (Staphylococcus aureus).

As for `CCCCCCCCS(=O)(=O)Nc1ccc(-c2ccc(-c3ccccc3)cc2)cc1C(=O)C(=O)NCCCN(C)C` [Compound 10d, N-(3-(Dimethylamino)propyl)-2-(4-(octylsulfonamido)-[1,1′:4′,1″-terphenyl]-3-yl)-2-oxoacetamide], the MIC in experiment [1] was 8 µM; in experiment [1] (Staphylococcus aureus), 4.6 µg/mL. Besides, the negative logarithm of the IC50 (pIC50) in experiment [3] was 5.46. In addition, the concentration for half-maximal inhibition (IC50) in experiment [3] was 2.01 µg/mL. Regarding `CCCCCCCCCCCCS(=O)(=O)Nc1ccc(-c2ccc(-c3ccccc3)cc2)cc1C(=O)C(=O)NCCCN(C)C` [Compound 11d, N-(3-(Dimethylamino)propyl)-2-(4-(dodecylsulfonamido)-[1,1′:4′,1″-terphenyl]-3-yl)-2-oxoacetamide], the minimal inhibitory concentration (MIC) in experiment [1] (Staphylococcus aureus) is 250 µM and 158 µg/mL. `CCCCCCCCCCCCS(=O)(=O)Nc1ccc(Br)cc1C(=O)C(=O)NCCCN(C)C` [Compound 11b, 2-(5-Bromo-2-(dodecylsulfonamido)phenyl)-N-(3-(dimethylamino)propyl)-2-oxoacetamide]: the results for the MIC in experiment [1] and in experiment [1] (Staphylococcus aureus) were 32 µM and 18 µg/mL, respectively. On the same counts, the results for `CCCCCCCCCCCCCCCCS(=O)(=O)Nc1ccccc1C(=O)C(=O)NCCCN(C)C.Cl` [Compound 15a, 3-(2-(2-(Hexadecylsulfonamido)phenyl)-2-oxoacetamido)-N,N-dimethylpropan-1-aminium chloride] are 63 µM and 36 µg/mL. Regarding `CCCCCCCCCCCCS(=O)(=O)Nc1ccc(Br)cc1C(=O)C(=O)NCCCN(C)C.Cl` [Compound 14b, 3-(2-(5-Bromo-2-(dodecylsulfonamido)phenyl)-2-oxoacetamido)-N,N-dimethylpropan-1-aminium chloride], in experiment [1] (Staphylococcus aureus), the MIC is 16 µM and 9.6 µg/mL. Still for that read-out and setting: to `CCCCCCCCCCCCCCCCS(=O)(=O)Nc1ccc(-c2ccccc2)cc1C(=O)C(=O)NCCC[N+](C)(C)C.[I-]` [Compound 18c, 3-(2-(4-(Hexadecylsulfonamido)-[1,1′-biphenyl]-3-yl)-2-oxoacetamido)-N,N,N-trimethylpropan-1-aminium iodide] belongs 250 µM and 189 µg/mL. In the case of `CCCCCCCCS(=O)(=O)Nc1ccc(-c2ccccc2)cc1C(=O)C(=O)NCCCN(C)C` [Compound 10c], in experiment [2], the “MIC S. aureus” value was 24 μM and 12 μg/mL. Consider `CCCCCCCCS(=O)(=O)Nc1ccc(Br)cc1C(=O)C(=O)NCCCN(C)C` [Compound 10b], for which, in experiment [2], the “MIC S. aureus” value is 94 μM and 47 μg/mL. For the compound `CCCCCCCCCCCCCCCCS(=O)(=O)Nc1ccc(-c2ccccc2)cc1C(=O)C(=O)NCCCN(C)C.Cl` [Compound 15c, 3-(2-(4-(Hexadecylsulfonamido)-[1,1′-biphenyl]-3-yl)-2-oxoacetamido)-N,N-dimethylpropan-1-aminium chloride], the values for the MIC in experiment [1] and in experiment [1] (Staphylococcus aureus) were more than 250 µM and more than 163 µg/mL, respectively. Regarding `CCCCCCCCS(=O)(=O)Nc1ccc(-c2cccc(-c3ccccc3)c2)cc1C(=O)C(=O)NCCCN(C)C.Cl` [Compound 22, N,N-Dimethyl-3-(2-(4-(octylsulfonamido)-[1,1′:3′,1″-terphenyl]-3-yl)-2-oxoacetamido)propan-1-aminium chloride], the figures for the MIC in experiment [1] and in experiment [1] (Staphylococcus aureus) were 16 µM and 9.8 µg/mL, respectively. The concentration for half-maximal inhibition (IC50) in experiment [3] was 3.46 µM and 2.13 µg/mL.

In general, MIC refers to the lowest concentration that inhibits growth of the organism. As usually defined, the pIC50 is the negative decadic logarithm of the IC50, by convention in mol/L. Usually IC50 stands for the midpoint of a concentration-inhibition curve.
